Source: ChEMBL document CHEMBL4665653, “VU6005806/AZN-00016130, an advanced M positive allosteric modulator (PAM) profiled as a potential preclinical development candidate” (Bioorg Med Chem Lett, 2019)
The source made the active and inactive calls. The rule behind the calls is not given here.

What was measured:
[1] = molecular target: T1, Muscarinic acetylcholine receptor M4 (Homo sapiens, UniProt P08173); experiment: Positive allosteric modulation of human M4 receptor/Gqi5 in presence of EC20 acetylcholine by calcium mobilization assay; type: functional
T1 sequence (P08173 whole entry): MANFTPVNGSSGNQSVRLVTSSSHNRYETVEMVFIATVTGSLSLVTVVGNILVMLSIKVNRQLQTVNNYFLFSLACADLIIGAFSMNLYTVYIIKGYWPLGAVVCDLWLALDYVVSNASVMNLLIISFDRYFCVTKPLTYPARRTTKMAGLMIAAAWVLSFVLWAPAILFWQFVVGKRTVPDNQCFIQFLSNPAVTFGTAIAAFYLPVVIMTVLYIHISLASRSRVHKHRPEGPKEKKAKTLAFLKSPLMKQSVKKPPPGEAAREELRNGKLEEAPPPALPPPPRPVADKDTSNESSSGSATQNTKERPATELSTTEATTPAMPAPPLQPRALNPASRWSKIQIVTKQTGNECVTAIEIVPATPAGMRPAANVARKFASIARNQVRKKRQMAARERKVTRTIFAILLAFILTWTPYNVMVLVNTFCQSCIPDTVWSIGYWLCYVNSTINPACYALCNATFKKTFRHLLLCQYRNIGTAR

[2] = molecular target: T2, Muscarinic acetylcholine receptor M4 (Homo sapiens) (UniProt P08173); experiment: Positive allosteric modulation of human M4 receptor/Gqi5 in presence of EC20 acetylcholine by calcium mobilization assay relative to acetylcholine; type: functional; conditions: filed as positive allosteric modulator
T2 sequence (whole entry): T1 sequence (P08173 whole entry)

[3] = molecular target: T3, Muscarinic acetylcholine receptor M2 (Homo sapiens, UniProt P08172); experiment: Positive allosteric modulation of human M2 receptor/Gqi5 in presence of EC20 acetylcholine by calcium mobilization assay
T3 sequence (P08172 whole entry): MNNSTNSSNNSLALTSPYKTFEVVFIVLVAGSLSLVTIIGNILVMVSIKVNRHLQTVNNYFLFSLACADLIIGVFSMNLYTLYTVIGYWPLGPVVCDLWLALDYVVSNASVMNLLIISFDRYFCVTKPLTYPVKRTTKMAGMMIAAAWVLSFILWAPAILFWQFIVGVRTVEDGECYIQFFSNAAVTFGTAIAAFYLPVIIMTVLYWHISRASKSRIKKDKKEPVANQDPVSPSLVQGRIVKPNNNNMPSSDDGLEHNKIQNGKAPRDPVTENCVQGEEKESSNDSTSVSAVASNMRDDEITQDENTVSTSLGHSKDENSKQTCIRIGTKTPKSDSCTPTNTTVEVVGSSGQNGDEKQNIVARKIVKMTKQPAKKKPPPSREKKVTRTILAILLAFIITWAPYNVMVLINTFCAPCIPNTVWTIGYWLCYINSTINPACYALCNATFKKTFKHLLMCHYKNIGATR

[4] = molecular target: T3, Muscarinic acetylcholine receptor M2; experiment: Positive allosteric modulation of human M2 receptor/Gqi5 in presence of EC20 acetylcholine by calcium mobilization assay relative to acetylcholine; conditions: read-out: %max
[5] = molecular target: T4, Muscarinic acetylcholine receptor M1 (Homo sapiens) (UniProt P11229); experiment: Positive allosteric modulation of human M1 receptor
T4 sequence (whole entry): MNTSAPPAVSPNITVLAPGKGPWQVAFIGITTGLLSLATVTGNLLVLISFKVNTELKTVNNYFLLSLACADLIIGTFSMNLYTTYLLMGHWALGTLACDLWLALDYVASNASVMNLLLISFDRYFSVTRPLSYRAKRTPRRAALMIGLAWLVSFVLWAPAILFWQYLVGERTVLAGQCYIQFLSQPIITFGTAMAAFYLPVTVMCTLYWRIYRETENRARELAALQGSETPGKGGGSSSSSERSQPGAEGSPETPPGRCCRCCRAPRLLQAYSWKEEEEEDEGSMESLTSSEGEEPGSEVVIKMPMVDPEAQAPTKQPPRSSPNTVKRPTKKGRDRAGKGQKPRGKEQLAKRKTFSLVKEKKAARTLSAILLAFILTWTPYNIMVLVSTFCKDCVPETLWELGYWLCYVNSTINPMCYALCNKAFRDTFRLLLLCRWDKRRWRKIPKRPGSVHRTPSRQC

[6] = molecular target: Muscarinic acetylcholine receptor M3 (Homo sapiens, UniProt P20309); experiment: Positive allosteric modulation of human M3 receptor
[7] = molecular target: T5, Muscarinic acetylcholine receptor M5 (Homo sapiens) (UniProt P08912); experiment: Positive allosteric modulation of human M5 receptor
T5 sequence (whole entry): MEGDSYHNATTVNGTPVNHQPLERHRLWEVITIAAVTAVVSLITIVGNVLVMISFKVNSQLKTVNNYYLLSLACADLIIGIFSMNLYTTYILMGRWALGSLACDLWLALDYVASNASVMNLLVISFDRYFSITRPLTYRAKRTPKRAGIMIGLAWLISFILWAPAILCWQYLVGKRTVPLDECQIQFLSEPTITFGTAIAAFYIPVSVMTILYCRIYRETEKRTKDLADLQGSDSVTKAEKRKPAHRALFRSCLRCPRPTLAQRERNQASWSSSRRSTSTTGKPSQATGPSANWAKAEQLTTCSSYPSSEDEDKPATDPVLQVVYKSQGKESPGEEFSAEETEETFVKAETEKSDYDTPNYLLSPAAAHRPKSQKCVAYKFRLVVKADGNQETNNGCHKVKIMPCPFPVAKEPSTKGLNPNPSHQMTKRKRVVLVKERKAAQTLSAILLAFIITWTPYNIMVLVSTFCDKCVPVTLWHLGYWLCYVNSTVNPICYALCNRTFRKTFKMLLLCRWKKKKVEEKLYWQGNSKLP

[8] = Hepatic clearance in rat; type: ADME; conditions: in vivo
[9] = Hepatic clearance in human; type: ADME
[10] = Fraction unbound in rat plasma; type: ADME, cell-free
[11] = Fraction unbound in human plasma; type: ADME, cell-free
[12] = Fraction unbound in rat brain; type: ADME, tissue-based
[13] = Brain to plasma permeability coefficient, Kp in Sprague-Dawley rat at 0.1 to 0.2 mg/kg, iv measured after 0.25 hrs; type: ADME, organism-based; conditions: dose 0.1-0.2 mg/kg
[14] = Unbound brain-to-plasma concentration ratio in Sprague-Dawley rat at 0.1 to 0.2 mg/kg, iv measured after 0.25 hrs; type: ADME, organism-based; conditions: dose 0.1-0.2 mg/kg, read-out: K(p,uu,brain)

Muscarinic acetylcholine receptor M3, sequence (P20309 whole entry, looked up): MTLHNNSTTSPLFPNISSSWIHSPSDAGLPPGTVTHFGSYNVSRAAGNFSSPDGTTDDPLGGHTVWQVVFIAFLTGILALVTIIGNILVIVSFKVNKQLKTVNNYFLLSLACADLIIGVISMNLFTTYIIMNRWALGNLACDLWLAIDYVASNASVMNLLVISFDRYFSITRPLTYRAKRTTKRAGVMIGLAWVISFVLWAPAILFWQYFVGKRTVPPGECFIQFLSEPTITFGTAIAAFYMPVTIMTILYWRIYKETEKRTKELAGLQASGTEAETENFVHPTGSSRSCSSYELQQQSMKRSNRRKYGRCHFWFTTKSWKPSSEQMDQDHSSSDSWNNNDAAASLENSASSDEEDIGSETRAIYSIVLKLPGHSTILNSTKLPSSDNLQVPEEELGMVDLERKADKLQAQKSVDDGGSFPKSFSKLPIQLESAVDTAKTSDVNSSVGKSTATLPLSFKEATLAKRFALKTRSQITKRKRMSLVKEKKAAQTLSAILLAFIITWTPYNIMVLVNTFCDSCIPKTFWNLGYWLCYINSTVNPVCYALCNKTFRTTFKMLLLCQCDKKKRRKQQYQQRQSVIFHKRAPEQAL

Row | Structure (SMILES) | EC50 [1] [nM] | %max [2] [%] | EC50 [3] [nM] | Emax [4] [%] | Activity [5] | Activity [6] | Activity [7] | CLH [8] [mL/min/kg] | CLH [9] [mL/min/kg] | fraction unbound [10] | fraction unbound [11] | fraction unbound [12] | Kp at 0.25 h [13] | Kp uu at 0.25 h [14]
1 | Cc1cc(C2CC2)ncc1N1CC(NC(=O)c2sc3nnc(Cl)c(C)c3c2N)C1 | 150 | 90 | 870 | 33 | inactive | inactive | inactive | – | – | – | – | – | – | –
2 | Cc1c(CF)nnc2sc(C(=O)NC3CN(c4ncc(C(F)(F)F)cn4)C3)c(N)c12 | 170 | 73 | > 30000 | – | inactive | inactive | inactive | 23.7 | 10.8 | 0.034 | 0.042 | 0.085 | 0.06 | 0.15
3 | COc1cc(N2CC(NC(=O)c3sc4nnc(Cl)c(C)c4c3N)C2)c(Cl)cn1 | 10 | 52 | > 30000 | – | inactive | inactive | inactive | 15.3 | 11.7 | 0.005 | < 0.001 | 0.01 | 0.21 | 0.42
4 | Cc1nc(Cl)c(C)c(N2CC(NC(=O)c3sc4nnc(Cl)c(C)c4c3N)C2)n1 | 100 | 84 | > 30000 | – | inactive | inactive | inactive | – | – | – | – | – | – | –
5 | Cc1c(Cl)nnc2sc(C(=O)NC3CN(c4cnc(Cl)cn4)C3)c(N)c12 | 140 | 99 | 400 | 40 | inactive | inactive | inactive | – | – | – | – | – | – | –
6 | Cc1c(Cl)nnc2sc(C(=O)NC3CN(c4cc(Cl)ncc4Cl)C3)c(N)c12 | 30 | 59 | > 30000 | – | inactive | inactive | inactive | – | – | – | – | – | – | –
7 | COCCOc1nnc2sc(C(=O)NC3CN(c4ncc(C(F)(F)F)cn4)C3)c(N)c2c1C | 180 | 48 | > 30000 | – | inactive | inactive | inactive | – | – | – | – | – | – | –
8 | Cc1c(CO)nnc2sc(C(=O)NC3CN(c4ncc(C(F)(F)F)cn4)C3)c(N)c12 | 1170 | 75 | > 30000 | – | inactive | inactive | inactive | – | – | – | – | – | – | –
9 | Cc1c(Cl)nnc2sc(C(=O)NC3CN(c4ncncc4C#N)C3)c(N)c12 | 220 | 65 | > 30000 | – | inactive | inactive | inactive | – | – | – | – | – | – | –
10 | Cc1c(O)nnc2sc(C(=O)NC3CN(c4ncc(C(F)(F)F)cn4)C3)c(N)c12 | 6720 | 45 | > 30000 | – | inactive | inactive | inactive | – | – | – | – | – | – | –
11 | Cc1c(Cl)nnc2sc(C(=O)NC3CN(c4ccnc(F)c4Cl)C3)c(N)c12 | 70 | 72 | > 30000 | – | inactive | inactive | inactive | – | – | – | – | – | – | –
12 | Cc1c(Cl)nnc2sc(C(=O)NC3CN(c4ccc(C5CC5)nn4)C3)c(N)c12 | 120 | 94 | > 5000 | 43 | inactive | inactive | inactive | – | – | – | – | – | – | –
13 | Cc1c(Cl)nnc2sc(C(=O)NC3Cc4ccccc4C3)c(N)c12 | 10 | 73 | – | – | – | – | – | – | – | – | – | – | – | –
14 | Cc1c(Cl)nnc2sc(C(=O)NC3CN(c4cccnc4)C3)c(N)c12 | 20 | 86 | 1100 | 64 | inactive | inactive | inactive | – | – | – | – | – | – | –
15 | Cc1c(Cl)nnc2sc(C(=O)NC3CN(c4ncc(C(F)(F)F)cn4)C3)c(N)c12 | 60 | 78 | > 30000 | – | inactive | inactive | inactive | 51.9 | – | 0.022 | 0.022 | 0.037 | 0.1 | 0.17
16 | COc1nnc2sc(C(=O)NC3Cc4ccccc4C3)c(N)c2c1C | 20 | 83 | – | – | – | – | – | – | – | – | – | – | – | –
17 | Cc1c(CN(C)C)nnc2sc(C(=O)NC3CN(c4ncc(C(F)(F)F)cn4)C3)c(N)c12 | > 30000 | – | > 30000 | – | inactive | inactive | inactive | – | – | – | – | – | – | –
18 | Cc1c(Cl)nnc2sc(C(=O)NC3CN(c4cc(C(F)(F)F)ncc4Cl)C3)c(N)c12 | 20 | 90 | > 10000 | 51 | inactive | inactive | inactive | 31.7 | 14.7 | 0.019 | 0.019 | 0.01 | 0.31 | 0.16
19 | CCc1nnc2sc(C(=O)NC3CN(c4ncc(C(F)(F)F)cn4)C3)c(N)c2c1C | 510 | 77 | > 30000 | – | inactive | inactive | inactive | – | – | – | – | – | – | –
20 | Cc1c(Cl)nnc2sc(C(=O)NC3CN(c4nnc(CC(C)C)o4)C3)c(N)c12 | 230 | 47 | > 10000 | 62 | inactive | inactive | inactive | – | – | – | – | – | – | –
21 | Cc1cnnc2sc(C(=O)NC3Cc4ccccc4C3)c(N)c12 | 60 | 81 | – | – | – | – | – | – | – | – | – | – | – | –
22 | Cc1c(O)nnc2sc(C(=O)NC3Cc4ccccc4C3)c(N)c12 | 290 | 71 | – | – | – | – | – | – | – | – | – | – | – | –
23 | Cc1nnc2sc(C(=O)NC3Cc4ccccc4C3)c(N)c2c1C | 20 | 79 | – | – | – | – | – | – | – | – | – | – | – | –
24 | Cc1c(C(C)C)nnc2sc(C(=O)NC3CN(c4ncc(C(F)(F)F)cn4)C3)c(N)c12 | 540 | 56 | > 30000 | – | inactive | inactive | inactive | – | – | – | – | – | – | –
